Results on eleven compounds are retold here after patent US9181182B2, “S1P receptors modulators” (Akaal Pharma PTY LTD, priority 2008, dated 2015).

The target in the test is S1P1 human receptor (Homo sapiens (Human), UniProt P21453). The experiment in a line: S1P1 [35S]-GTPgamaS binding assay (agonist activity). The conditions noted are these: for EC50: GTPgamaS binding, agonist; for EC50S1P1/EC50S1P: potency at S1P1 relative to S1P; for Efficacy (% of maximum): S1P1, relative to reference agonist S1P. In kind it is biochemical. As to the method:
Selected Compounds of the Examples were evaluated at Millipore Corporation, USA, using S1P1 receptor; [^35S]-GTPgamaS binding assay. A [^35S]-GTPgamaS binding assay at Millipore was conducted by GPCR Profiler™ Custom Service Laboratory, Temecula, Calif., Millipore, Inc. to monitor dose-dependent agonist selectivity for selected Examples against the S1P1 receptors. The assay was completed with sample compounds subjected to an eight-point, four-fold dose response curve with starting concentration of 10 μM. Selectivity was determined upon initial addition of compounds followed by a 30 minute incubation at 30° C. Following compound incubation, bounded [^35S]-GTPgamaS was determined by filtration and scintillation counting.
Independently, selected compounds were evaluated for S1P1 and S1P3 agonistic activity. The S1P1 assay system was GTPgama-S35 binding in membranes from CHO K1 cells, expressing S1P1 human receptor. The S1P3 assay system was calcium mobilization in CHO K1 cells expressing S1P3 human receptor. […] Compounds were tested initially at a concentration of 10 μM.

S1P1 human receptor, sequence (P21453 whole entry): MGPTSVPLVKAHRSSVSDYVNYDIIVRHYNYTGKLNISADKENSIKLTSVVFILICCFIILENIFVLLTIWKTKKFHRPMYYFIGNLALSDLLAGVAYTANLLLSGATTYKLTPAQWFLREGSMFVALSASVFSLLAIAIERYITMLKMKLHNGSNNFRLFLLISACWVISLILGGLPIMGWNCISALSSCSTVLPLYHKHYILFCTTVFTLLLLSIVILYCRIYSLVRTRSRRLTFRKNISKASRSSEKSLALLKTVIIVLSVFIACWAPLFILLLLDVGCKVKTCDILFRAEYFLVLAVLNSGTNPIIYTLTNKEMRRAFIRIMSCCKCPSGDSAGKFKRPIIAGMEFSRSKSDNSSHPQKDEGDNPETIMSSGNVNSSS

For orientation: EC50 means the concentration needed to bring the measured effect to its halfway point. Regarding `CC(C)(C)OC(=O)NC(CO)(CO)CN1CCc2c(OCc3cc4c(Cl)cc(Cl)cc4o3)cccc21` [41(b), t-butyl 1-(4-((4,6-dichlorobenzofuran-2-yl)methoxy)indolin-1-yl)-3-hydroxy-2-(hydroxymethyl)propan-2-ylcarbamate], the 50% effective concentration (EC50) was > 29000 nM and the EC50S1P1/EC50S1P is reported as 3066.24.

On to `CCCCCCCCc1ccc(NCC(N)(CO)CO)cc1` [Example 1, 2-Amino-2-((4-octylphenylamino)methyl)propane-1,3-diol], for which the concentration giving a half-maximal response (EC50) is > 25000 nM and the EC50S1P1/EC50S1P is listed as >9259.

As for `CC(C)Oc1ccc(-c2nc(-c3ccc4c(c3)CCN4CC(N)(CO)CO)no2)cc1Cl` [Example 51, 2-Amino-2-((5-(5-(3-chloro-4-isopropoxyphenyl)-1,2,4-oxadiazol-3-yl)indolin-1-yl)methyl)propane-1,3-diol], the half-maximal effective concentration (EC50) stood at 3.5 nM, the “Efficacy (% of maximum)” value was 85% and the EC50S1P1/EC50S1P is on record as 0.38.

Regarding `Cl.NC(CO)(CO)CCc1ccc(CCc2ccc(C(=O)c3ccc(F)cc3)cc2)cc1` [Example 12, (4-(4-(3-Amino-4-hydroxy-3-(hydroxymethyl)butyl)phenethyl)phenyl)(4-fluorophenyl)methanone hydrochloride salt], the midpoint of the response, the EC50, lay at 1820 nM; the “Efficacy (% of maximum)” value came out at 49%; the EC50S1P1/EC50S1P came to 557.

`CCCCOc1ccc(-c2nc(-c3ccc4c(c3)CCN4CC(N)(CO)CO)no2)cc1Cl` [Example 52, 2-Amino-2-((5-(5-(4-butoxy-3-chlorophenyl)-1,2,4-oxadiazol-3-yl)indolin-1-yl)methyl)propane-1,3-diol]: the EC50 was found to be 34.5 nM, the “Efficacy (% of maximum)” value amounted to 62% and the EC50S1P1/EC50S1P is given as 3.55.

In the case of `CCCOc1ccc(-c2nc(-c3cccc4c3CCN4CC(N)(CO)CO)no2)cc1N` [Example 46, 2-Amino-2-((4-(5-(3-amino-4-propoxyphenyl)-1,2,4-oxadiazol-3-yl)indolin-1-yl)methyl)propane-1,3-diol], a half-maximal response (EC50) required 88 nM, the “Efficacy (% of maximum)” value is reported as 94% and the EC50S1P1/EC50S1P is reported as 10.61.

`CCCOc1ccc(-c2nc(-c3ccc4c(c3)CCN4CC(N)(CO)CO)no2)cc1Br` [Example 56, 2-Amino-2-((5-(5-(3-bromo-4-propoxyphenyl)-1,2,4-oxadiazol-3-yl)indolin-1-yl)methyl)propane-1,3-diol]: a half-maximal effect (EC50) was put at 2.9 nM, the “Efficacy (% of maximum)” value came out at 79% and the EC50S1P1/EC50S1P came out at 0.29.

Consider `NC(CO)(CO)CN1CCc2cc(CCc3ccc(-c4ccccc4C(F)(F)F)cc3)ccc21` [Example 59, 2-Amino-2-((5-(2-(2′-(trifluoromethyl)biphenyl-4-yl)ethyl)indolin-1-yl)methyl)propane-1,3-diol], for which the EC50 is > 2130 nM and the EC50S1P1/EC50S1P is given as >1000.

Consider `CCCOc1ccc(-c2nc(-c3cccc4c3CCN4CC(N)(CO)CO)no2)cc1I` [Example 44, 2-Amino-2-((4-(5-(3-iodo-4-propoxyphenyl)-1,2,4-oxadiazol-3-yl)indolin-1-yl)methyl)propane-1,3-diol], for which a half-maximal effect (EC50) was put at 48.1 nM, the “Efficacy (% of maximum)” value is 60% and the EC50S1P1/EC50S1P stood at 18.24.

`CCCCCOc1ccc(-c2nc(-c3ccc4c(c3)CCN4CC(N)(CO)CO)no2)cc1Cl` [Example 54, 2-Amino-2-((5-(5-(3-chloro-4-(pentyloxy)phenyl)-1,2,4-oxadiazol-3-yl)indolin-1-yl)methyl)propane-1,3-diol]: the EC50 is 43.8 nM, the “Efficacy (% of maximum)” value is listed as 73% and the EC50S1P1/EC50S1P is 5.93.

As to `CCCc1ccc(-c2nc(-c3cccc4c3CCN4CC(N)(CO)CO)no2)cc1` [Example 48, 2-Amino-2-((4-(5-(4-propylphenyl)-1,2,4-oxadiazol-3-yl)indolin-1-yl)methyl)propane-1,3-diol], the 50% effective concentration (EC50) stood at 6.7 nM, the “Efficacy (% of maximum)” value was determined as 78% and the EC50S1P1/EC50S1P came out at 0.14.
